{
  "source": "patent US7625887B2",
  "about": "“Receptor agonists” (Takeda Pharmaceutical Company Limited, priority 2003, dated 2009)",
  "key": {"[1]": {"tested_on": "guinea pig intestine primary culture cells", "assay": "GLP-1 secretion from guinea pig intestine primary culture cells", "assay_type": "cell-based", "conditions": "bile acid 50 μM, 90 min", "experimental": "Colon mucous membrane of guinea pig (Hartley, male, Charles River Japan, Inc.) was removed and subjected to an enzyme treatment to give a cell dispersion according to the following method.\n(§1) The enzyme solution used was obtained by dissolving 5 mg/ml Collagenase (Sigma), 5 mg/ml Hyaluronidase (Sigma) and 0.5 mg/ml DNaseI (Sigma) in a medium. The medium used was Dulbecco's Modified Eagle Medium (DMEM, Invitrogen) supplemented with 4.5 g/l Glucose, 5% FBS (Invitrogen), 100 units/ml Penicillin (Invitrogen), 100 μg/ml Streptomycin (Invitrogen), 50 μg/ml Gentamicin (Invitrogen) and 20 mM Hepes (pH 7.3). After digestion by the enzyme solution at 37° C., the tissue sections were prepared into dispersed cells by passing through a pipette 4 times and the cells were collected. The collected cells were washed with a buffer (incubation buffer) obtained by adding 5.5 mM Glucose and 0.1% BSA to a modified Krebs-Ringer bicarbonate buffer (KRBH, 116 mM NaCl, 4.7 mM KCl, 1.2 mM KH2PO4, 1.2 MM MgSO4, 2.5 mM CaCl2, 25 mM NaHCO3, 24 mM HEPES, pH 7.3), and preincubated at 37° C. under 5% CO2 for 30 min. 0.1 μM Phorbol ester (Wako), 1% DPPIV inhibitor (Linco) and a test compound were added to the above-mentioned incubation buffer, and the obtained buffer was added to the cells after the aforementioned preincubation and incubated for 90 min. The culture supernatant was collected and cryopreserved. The concentration of GLP-1 released in the culture supernatant was measured using an ELISA kit (Linco)."}, "[2]": {"tested_on": "NCI-H716 cells", "assay": "intracellular cAMP production increasing action in NCI-H716 cells", "assay_type": "cell-based, human", "conditions": "bile acid 50 μM, 2 hrs; production amount in TLCA (50 μM) was 100%; Base 11"}, "[3]": {"tested_on": "guinea pig peripheral blood mononuclear cells", "assay": "IL-6 secretion in LPS-stimulated guinea pig peripheral blood mononuclear cells", "assay_type": "cell-based", "conditions": "16 hrs, bile acid 50 μM; non-addition: 520 with LPS, 32 without", "experimental": "(§2) The peripheral blood was taken from guinea pig, and mononuclear cell fraction was obtained by a density separation method using Ficoll-Paque PLUS (Amersham Pharmacia). The fraction at a concentration of 1×10^5/well was cultured for 16 hrs in the presence of […] LPS in a 96-well plate upon addition of bile acid or a test compound. The culture supernatant was collected and TNF and IL-6 in the supernatant were quantitated.\nThe quantitation of IL-6 in the culture supernatant was performed using IL-6 dependent cell line 7TD1 (RIKEN Institute) with its growth promoting action as an index. First, 7TD1 cells were suspended in a basic medium (RPMI1640 (Invitrogen) supplemented with 1% non-essential amino acid (Invitrogen) and 55 μM 2-mercaptoethanol (Invitrogen)) and seeded in a 96-well plate at a concentration of 2×10^3/well. Immediately after seeding, peripheral blood mononuclear cell culture supernatant diluted with a dilution medium (the above-mentioned basic medium supplemented with 10% FBS) was added and the cells were cultured for 2 days. The IL-6 content was determined by measuring the growth of the 7TD1 cells in the obtained culture product using a CellTiter-Glo (Promega). As the standard sample, human recombinant IL-6 (Genzyme) was used."}, "[4]": {"tested_on": "rat intestine primary culture cells", "assay": "GLP-1 secretion from rat intestine primary culture cells", "assay_type": "cell-based", "conditions": "bile acid 100 μM, 150 min", "experimental": "Terminal ileum and colon mucous membrane were removed from rat (Wistar, male, Charles River Japan, Inc.) and subjected to an enzyme treatment to give a cell dispersion according to the following method.\nas §1, with “pipette 7” for “pipette 4”, “1.2 mM” for “1.2 MM”, “for 150” for “for 90”"}, "[5]": {"tested_on": "guinea pig peripheral blood mononuclear cells", "assay": "TNF secretion in LPS-stimulated guinea pig peripheral blood mononuclear cells", "assay_type": "cell-based", "conditions": "16 hrs, bile acid 50 μM; non-addition: 160 with LPS, 13 without", "experimental": "as §2\nThe TNF secretion amount in the culture supernatant was measured in the same manner as in Experimental Example 7."}},
  "data": [
    {"smiles": "C[C@H](CCC(=O)NCCS(=O)(=O)O)[C@H]1CC[C@H]2[C@@H]3CC[C@@H]4C[C@H](O)CC[C@]4(C)[C@H]3CC[C@]12C", "note": "[TLCA, taurolithocholic acid, reference compound]", "values": [
      {"measurement": "GLP-1 (% relative to non-addition)", "setting": "[1]", "value": "400 % relative to non-addition"},
      {"measurement": "cAMP production increasing activity (%)", "setting": "[2]", "value": 100, "unit": "%"},
      {"measurement": "IL-6", "setting": "[3]", "value": 260, "unit": "pg/mL"},
      {"measurement": "GLP-1 (% relative to non-addition)", "setting": "[4]", "value": "290 % relative to non-addition"},
      {"measurement": "TNF α", "setting": "[5]", "value": 60, "unit": "pg/mL"}
    ]}
  ]
}
